The results in this text go back to US12528790B2, “Amide derivative having antiviral activity” (Shionogi & Co., Ltd., priority 2020, dated 2026).

Assay [1] has as its system RSV B (Wash/18537 strain). The experiment in a line: In vitro CPE (CytoPathic Effect) inhibition effect evaluation test, RSV type B. In kind it is cell-based. The note with it: human respiratory syncytial virus, inhibitory effect against RSV type B, CPE inhibition; read-out: EC50. The method, boiled down:
(§1)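 EC50 is the concentration giving 50% inhibition of virus-induced cytopathic effect, fitted by nonlinear regression from CellTiter-Glo 2.0 viability. Compounds in 3-fold series were co-incubated at 37 °C with HEp-2 cells and RSV: A2 strain for 4 days, B (Wash/18537) for 5 days; uninfected wells served as control.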
For orientation: Cytopathic effects are the visible damage that an infection or toxin causes in cultured cells.

The subject of assay [2] is RSV A2 strain. Put plainly: In vitro CPE (CytoPathic Effect) inhibition effect evaluation test, RSV type A. Particulars: human respiratory syncytial virus; inhibitory effect against RSV type A (RSV A2 strain), HEp-2 cells, CPE inhibition; read-out: EC50. In kind it is cell-based. The method in brief:
as §1

Molecules are shown by their SMILES. A value given as a limit tells only on which side of the number the result lay.

Broadly, the EC50 is the midpoint of the concentration-response curve. Regarding `O=C(NC1(C(=O)O)C2CC3CC(C2)CC1C3)c1cnc(N2CC3(CCCCC3)c3cc(OC4CC5(CCN(CC(F)(F)F)CC5)C4)ccc32)nc1C(F)(F)F` (stereo not drawn) [Compound I-473], the concentration giving a half-maximal response (EC50) was 100 to 5000 nM in assay [1] and below 10 nM in assay [2].

For `O=C(NC1(C(=O)O)C2CC3CC(C2)CC1C3)c1cnc(N2CC3(CCCC3)c3cc(OC4CCN(CC(F)(F)F)CC4)ccc32)nc1C(F)(F)F` (stereo not drawn) [Compound I-474], the EC50 is 10 to 100 nM in assay [1] and below 10 nM in assay [2].

Turning to `O=C(N[C@]1(C(=O)O)[C@@H]2CC3C[C@H]1C[C@@](F)(C3)C2)c1cnc(-c2cn(C3CCC(F)(F)CC3)c3cc(O[C@H]4CC[C@H](N5CC(F)(F)C5)CC4)ccc23)nc1C(F)(F)F` [Compound I-479], the concentration for a half-maximal effect (EC50) in assay [1] and in assay [2] was below 10 nM in each case.

For the molecule `CC(F)(F)c1nc(-c2cn(C3CCC(F)(F)CC3)c3cc(O[C@H]4CC[C@H](N5CC(F)(F)C5)CC4)ccc23)ncc1C(=O)NC1(C(=O)O)C2CC3CC(C2)CC1C3` (stereo partly drawn) [Compound I-481], the EC50 in assay [1] and in assay [2] was below 10 nM in each case.

As for `O=C(NC1(C(=O)O)C2CC3CC(C2)CC1C3)c1cnc(N2CC3(CCCCC3)c3cc(OC4CCN(CC(F)F)CC4)ccc32)nc1C(F)(F)F` (stereo not drawn) [Compound I-482], the values for the EC50 in assay [1] and in assay [2] were 10 to 100 nM and below 10 nM, respectively.

As to `O=C(NCC(F)(F)F)c1ccc2c(c1)C1(CCOCC1)CN2c1ncc(C(=O)NC2(C(=O)O)C3CC4CC(C3)CC2C4)c(C(F)(F)F)n1` (stereo not drawn) [Compound I-483], the EC50 was 100 to 5000 nM in assay [1] and below 10 nM in assay [2].

As to `O=C(NC1(C(=O)O)C2CC3CC(C2)CC1C3)c1cnc(N2CC3(CCCCC3)c3cc(OC4CCN(CC5(F)COC5)CC4)ccc32)nc1C(F)(F)F` (stereo not drawn) [Compound I-484], the EC50 was 10 to 100 nM in assay [1] and below 10 nM in assay [2].

On to `O=C(NC1(C(=O)O)C2CC3CC(C2)CC1C3)c1cnc(N2CC3(CCCCC3)c3cc(OC4CCN(C5CSC5)CC4)ccc32)nc1C(F)(F)F` (stereo not drawn) [Compound I-485], for which the EC50 is 10 to 100 nM in assay [1] and below 10 nM in assay [2].

`O=C(NC1(C(=O)O)C2CC3CC(C2)CC1C3)c1cnc(N2CC3(CCCC3)c3cc(OC4CCC5(CC4)COC5)ccc32)nc1C(F)(F)F` (stereo not drawn) [Compound I-488]: the EC50 in assay [1] and in assay [2] was below 10 nM throughout.

In the case of `O=C(NC1(C(=O)O)C2CC3CC(C2)CC1C3)c1cnc(N2CC3(CCOCC3)c3cc(OCCC(F)(F)F)ncc32)nc1C(F)(F)F` (stereo not drawn) [Compound I-489], the EC50 in assay [1] and in assay [2] was below 10 nM throughout.

In the case of `O=C(NC1(C(=O)O)C2CC3CC(C2)CC1C3)c1cnc(N2CC3(CCOCC3)c3cc(C(=O)N4CC(C(F)(F)F)C4)ccc32)nc1C(F)(F)F` (stereo not drawn) [Compound I-490], the EC50 in assay [1] and in assay [2] was below 10 nM throughout.

`O=C(NC1(C(=O)O)C2CC3CC(C2)CC1C3)c1cnc(N2CC3(CCOCC3)c3cc(C(=O)N4CC(F)(F)C4)ccc32)nc1C(F)(F)F` (stereo not drawn) [Compound I-491]: the EC50 is 10 to 100 nM in assay [1] and below 10 nM in assay [2].

Turning to `CC(=O)N1CC(N2CCC(Oc3ccc4c(c3)C3(CCCCC3)CN4c3ncc(C(=O)NC4(C(=O)O)C5CC6CC(C5)CC4C6)c(C(F)(F)F)n3)CC2)C1` (stereo not drawn) [Compound I-492], the EC50 in assay [1] was 10 to 100 nM; in assay [2], below 10 nM.

In the case of `O=C(NC1(C(=O)O)C2CC3CC(C2)CC1C3)c1cnc(N2CC3(CCC(F)(F)CC3)c3cc(OC4CCN(CC(F)(F)F)CC4)ccc32)nc1C(F)(F)F` (stereo not drawn) [Compound I-493], the EC50 in assay [1] and in assay [2] was below 10 nM in each case.

With `O=C(NC1(C(=O)O)C2CC3CC(C2)CC1C3)c1cnc(N2CC3(CCCCC3)c3cc(OC4CN(c5ncc(F)cn5)C4)ccc32)nc1C(F)(F)F` (stereo not drawn) [Compound I-494], the EC50 in assay [1] and in assay [2] was below 10 nM each time.

For the molecule `O=C(NC1(C(=O)O)C2CC3CC(C2)CC1C3)c1cnc(N2CC3(CCCCC3)c3cc(OC4CN(CC(F)(F)F)C4)ccc32)nc1C(F)(F)F` (stereo not drawn) [Compound I-495], the EC50 in assay [1] and in assay [2] was below 10 nM throughout.

`CCC(CC)n1cc(-c2ncc(C(=O)NC3(C(=O)O)C4CC5CC(C4)CC3C5)c(C(F)(F)F)n2)c2ccc(O[C@H]3CC[C@H](N4CC(F)(F)C4)CC3)cc21` (stereo partly drawn) [Compound I-496]: the half-maximal effective concentration (EC50) in assay [1] and in assay [2] was below 10 nM each time.

With `O=C(NC1(C(=O)O)C2CC3CC(C2)CC1C3)c1cnc(-c2cn(C3CC3)c3cc(O[C@H]4CC[C@H](N5CC(F)(F)C5)CC4)ccc23)nc1C(F)(F)F` (stereo partly drawn) [Compound I-497], the concentration giving a half-maximal response (EC50) in assay [1] and in assay [2] was below 10 nM in each case.

Regarding `O=C(NC1(C(=O)O)C2CC3CC(C2)CC1C3)c1cnc(-c2cn(C3CCC4(CC3)COC4)c3cc(O[C@H]4CC[C@H](N5CC(F)(F)C5)CC4)ccc23)nc1C(F)(F)F` (stereo partly drawn) [Compound I-498], the half-maximal effective concentration (EC50) in assay [1] and in assay [2] was below 10 nM throughout.

For `O=C(NC1(C(=O)O)C2CC3CC(C2)CC1C3)c1cnc(-c2cn(C3CCOCC3)c3cc(O[C@H]4CC[C@H](N5CC(F)(F)C5)CC4)ccc23)nc1C(F)(F)F` (stereo partly drawn) [Compound I-499], the 50% effective concentration (EC50) in assay [1] and in assay [2] was below 10 nM each time.

For the molecule `O=C(NC1(C(=O)O)C2CC3CC(C2)CC1C3)c1cnc(N2CC3(CCCCC3)c3cc(O[C@H]4CC[C@@H](N5CC(F)(F)C5)CC4)ccc32)nc1C(F)(F)F` (stereo partly drawn) [Compound I-500], the EC50 in assay [1] and in assay [2] was below 10 nM each time.

Turning to `O=C(NC1(C(=O)O)C2CC3CC(C2)CC1C3)c1cnc(N2CC3(CCCCC3)c3cc(O[C@H]4CC[C@H](n5cncn5)CC4)ccc32)nc1C(F)(F)F` (stereo partly drawn) [Compound I-501], the half-maximal effective concentration (EC50) in assay [1] and in assay [2] was below 10 nM each time.

For the molecule `O=C(NC1(C(=O)O)C2CC3CC(C2)CC1C3)c1cnc(N2CC3(CCCC3)c3cc(OC4CCN(C5CC(F)(F)C5)CC4)ccc32)nc1C(F)(F)F` (stereo not drawn) [Compound I-502], the EC50 in assay [1] is 10 to 100 nM; in assay [2], below 10 nM.

On to `CC(F)(F)c1nc(N2CC3(CCOCC3)c3cc(OC4CCN(c5ncc(F)cn5)CC4)ncc32)ncc1C(=O)NC1(C(=O)O)C2CC3CC(C2)CC1C3` (stereo not drawn) [Compound I-503], for which the EC50 in assay [1] and in assay [2] was below 10 nM throughout.

Turning to `O=C(NC1(C(=O)O)C2CC3CC(C2)CC1C3)c1cnc(N2CC3(CCCCC3)c3cc(C(=O)N4CCN(c5ncc(F)cn5)CC4)ccc32)nc1C(F)(F)F` (stereo not drawn) [Compound I-504], the 50% effective concentration (EC50) in assay [1] and in assay [2] was below 10 nM in each case.

In the case of `O=C(NC1(C(=O)O)C2CC3CC(C2)CC1C3)c1cnc(N2CC3(CCCCC3)c3cc(C(=O)N4CCN(CC(F)(F)F)CC4)ccc32)nc1C(F)(F)F` (stereo not drawn) [Compound I-505], the EC50 in assay [1] and in assay [2] was below 10 nM throughout.

Consider `CC(F)(F)c1nc(N2CC3(CCOCC3)c3cc(O[C@H]4CC[C@H](N5CC(F)(F)C5)CC4)ccc32)ncc1C(=O)NC1(C(=O)O)C2CC3CC(C2)CC1C3` (stereo partly drawn) [Compound I-506], for which the EC50 in assay [1] and in assay [2] was below 10 nM throughout.

Consider `COC[C@@H](C)n1cc(-c2ncc(C(=O)NC3(C(=O)O)C4CC5CC(C4)CC3C5)c(C(F)(F)F)n2)c2ccc(O[C@H]3CC[C@H](N4CC(F)(F)C4)CC3)cc21` (stereo partly drawn) [Compound I-507], for which the 50% effective concentration (EC50) in assay [1] and in assay [2] was below 10 nM throughout.

On to `COC[C@H](C)n1cc(-c2ncc(C(=O)NC3(C(=O)O)C4CC5CC(C4)CC3C5)c(C(F)(F)F)n2)c2ccc(O[C@H]3CC[C@H](N4CC(F)(F)C4)CC3)cc21` (stereo partly drawn) [Compound I-508], for which the EC50 in assay [1] and in assay [2] was below 10 nM each time.

In the case of `O=C(NC1(C(=O)O)C2CC3CC(C2)CC1C3)c1ccc(-c2cn(C3CCC(F)(F)CC3)c3cc(OC4CCN(CC(F)(F)F)CC4)ccc23)nc1C(F)(F)F` (stereo not drawn) [Compound I-511], the 50% effective concentration (EC50) in assay [1] is 10 to 100 nM; in assay [2], below 10 nM.

Turning to `CC(F)(F)CN1CCC(Oc2ccc3c(-c4ccc(C(=O)NC5(C(=O)O)C6CC7CC(C6)CC5C7)c(C(F)(F)F)n4)cn(C4CCC(F)(F)CC4)c3c2)CC1` (stereo not drawn) [Compound I-512], the concentration for a half-maximal effect (EC50) in assay [1] is 10 to 100 nM; in assay [2] it was below 10 nM.

Regarding `O=C(NC1(C(=O)O)C2CC3CC(C2)CC1C3)c1ccc(-c2cn(C3CC3)c3cc(O[C@H]4CC[C@H](N5CC(F)(F)C5)CC4)ccc23)nc1C(F)(F)F` (stereo partly drawn) [Compound I-513], the EC50 in assay [1] and in assay [2] was below 10 nM throughout.

Regarding `O=C(NC1(C(=O)O)C2CC3CC(C2)CC1C3)c1ccc(-c2cn(C3CCC(F)(F)CC3)c3cc(O[C@H]4CC[C@@H](N5CC(F)(F)C5)CC4)ccc23)nc1C(F)(F)F` (stereo partly drawn) [Compound I-514], the EC50 was 10 to 100 nM in assay [1] and below 10 nM in assay [2].

With `O=C(NC1(C(=O)O)C2CC3CC(C2)CC1C3)c1cnc(N2CC3(CCCCC3)c3cc(OC4CCN(CC(F)(F)F)C4)ccc32)nc1C(F)(F)F` (stereo not drawn) [Compound I-517], the EC50 in assay [1] was 10 to 100 nM; in assay [2] it was below 10 nM.

Regarding `O=C(NC1(C(=O)O)C2CC3CC(C2)CC1C3)c1cnc(N2CC3(CCCCC3)c3cc(O[C@@H]4CCN(CC(F)(F)F)C4)ccc32)nc1C(F)(F)F` (stereo partly drawn) [Compound I-518], the concentration for a half-maximal effect (EC50) in assay [1] and in assay [2] was below 10 nM throughout.

`O=C(NC1(C(=O)O)C2CC3CC(C2)CC1C3)c1cnc(N2CC3(CCCCC3)c3cc(OC4CCN(c5ncco5)CC4)ccc32)nc1C(F)(F)F` (stereo not drawn) [Compound I-519]: the EC50 in assay [1] and in assay [2] was below 10 nM throughout.

As to `N#Cc1cnc(N2CCC(Oc3ccc4c(c3)C3(CCCCC3)CN4c3ncc(C(=O)NC4(C(=O)O)C5CC6CC(C5)CC4C6)c(C(F)(F)F)n3)CC2)nc1` (stereo not drawn) [Compound I-520], the EC50 in assay [1] and in assay [2] was below 10 nM throughout.

For the molecule `N#CCN1CCC(Oc2ccc3c(c2)C2(CCCCC2)CN3c2ncc(C(=O)NC3(C(=O)O)C4CC5CC(C4)CC3C5)c(C(F)(F)F)n2)CC1` (stereo not drawn) [Compound I-521], the EC50 is 10 to 100 nM in assay [1] and below 10 nM in assay [2].

With `COc1cnc(N2CCC(Oc3ccc4c(c3)C3(CCCCC3)CN4c3ncc(C(=O)NC4(C(=O)O)C5CC6CC(C5)CC4C6)c(C(F)(F)F)n3)CC2)nc1` (stereo not drawn) [Compound I-522], the concentration giving a half-maximal response (EC50) in assay [1] and in assay [2] was below 10 nM throughout.
